Experimental data from PMC4076210, “Discovery of Novel AKT Inhibitors with Enhanced Anti-Tumor Effects in Combination with the MEK Inhibitor” (PLoS ONE, 2014).
Several values for one entry are separate records, joined by “and”; a condition that tells them apart may be missing. Identical values can stand only once. Like-named read-outs stand apart in the source and are kept apart here.

Assays:
PKBα(h) = molecular target: T1, PKBα(h) (Homo sapiens, UniProt P31749); test: Kinase panel; assay type: biochemical
T1 construct: purchased Millipore KinaseProfiler

[1] = tested on: FOXO_GFP translocation in MDA-MB-468; test: FOXO3A-GFP translocation assay; assay type: cell-based, human; settings: MDA-MB-468, 1 h, mean ± std dev
Protocol: MDA-MB-468 cells stably transfected with FOXO3A-GFP were plated at 1000 cells/96 well and allowed to adhere overnight. Cells were treated with DMSO or AKT inhibitor (0-10 µM) for 1 h. Plates were centrifuged at 1200 rpm for 10 min, and the medium aspirated. Cells were fixed with 200 μL of 4% paraformaldehyde (Alfa Aesar, Wood Hill, MA), and DAPI (80 ng/mL, Roche, Branchburg, NJ) was added to each well and incubated for 20 min at room temperature. […] Five fields per well were imaged to achieve ≥250 nuclei count per well. A ratio of nuclear to cytoplasmic intensity was calculated by the software. The formula used to calculate percentage nuclear translocation = (Fluorescence sample- Fluorescence DMSO)/ (Fluorescence 10 µM treatment sample- Fluorescence DMSO)*100. The calculation produces a scale of 0-100% with 100% being 10 µM of compound treatment and 0 being DMSO treatment. The normalized values were then plotted in the XLFit 4 parameter curve fitting program to generate EC50 values.

cancer patients = settings: unselected patient population; cited from earlier work
PKBγ(h) = molecular target: T2, PKBγ(h) (Homo sapiens, UniProt Q9Y243); test: Kinase panel; assay type: biochemical
T2 construct: purchased Millipore KinaseProfiler

HPAC tumor xenografts = test: Xenograft tumor growth inhibition, combination with MEK inhibitor; assay type: in vivo, mouse; settings: 30 mg/kg daily, day 42
Protocol: (§1) Tumors were initiated by injecting either cells (SKOV3, CAPAN-2 and HPAC) or a tumor fragments (BT474) subcutaneously into 6–8 week female athymic nude (SKOV3) and SCID (all others) mice. Once tumors reached between 120 and 300 mm^3, mice were randomized according to tumor volume into groups of n = 7–10 mice per treatment. GSK2110183 and GSK2141795 were administered daily at various doses by oral gavage. In combination experiments, GSK1120212 was also administered daily by oral gavage. Tumor volumes and body weight were measured twice weekly, tumor volume was measured with calipers and calculated using equation: […]. Results are represented as percent inhibition on completion of dosing = 100 x [1- average growth of drug-treated population/average growth of vehicle-treated control population].

CAPAN-2 tumor xenografts = test: as above; assay type: in vivo, mouse; settings: 30 mg/kg, day 69
Protocol: as §1

PKBβ(h) = molecular target: T3, PKBβ(h) (Homo sapiens, UniProt P31751); test: Kinase panel; assay type: biochemical
T3 construct: purchased Millipore KinaseProfiler

ULK3(h) = molecular target: T4, ULK3(h) (Homo sapiens, UniProt Q6PHR2); test: Kinase panel; assay type: biochemical
T4 construct: purchased Millipore KinaseProfiler
T4 sequence (Q6PHR2 1-472): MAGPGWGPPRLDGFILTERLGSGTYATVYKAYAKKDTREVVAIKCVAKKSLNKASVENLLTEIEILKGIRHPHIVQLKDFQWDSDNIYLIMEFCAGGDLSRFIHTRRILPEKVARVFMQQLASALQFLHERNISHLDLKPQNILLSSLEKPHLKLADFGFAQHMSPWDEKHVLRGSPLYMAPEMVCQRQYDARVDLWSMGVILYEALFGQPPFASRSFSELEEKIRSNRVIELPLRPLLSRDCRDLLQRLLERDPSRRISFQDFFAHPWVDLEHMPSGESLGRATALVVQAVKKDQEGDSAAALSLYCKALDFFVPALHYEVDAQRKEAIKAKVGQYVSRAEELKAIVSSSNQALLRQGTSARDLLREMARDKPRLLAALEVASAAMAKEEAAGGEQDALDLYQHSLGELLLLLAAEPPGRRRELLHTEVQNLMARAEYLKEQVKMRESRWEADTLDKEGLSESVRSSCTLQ

CLK2(h) = molecular target: T5, CLK2(h) (Homo sapiens, UniProt P49760); test: Kinase panel; assay type: biochemical
T5 construct: purchased Millipore KinaseProfiler

A3 cells = test: Cell cycle analysis; assay type: cell-based, human; settings: A3, 1 µM
Protocol: (§2) Cells were plated in 96 well plates at a density of 3000-5000 cells/well and allowed to adhere overnight. Cells were treated with DMSO or various concentrations of drug for 72 h, fixed and stained with propidium iodide to stain nuclei (Vindelov, 1982). Cells were analyzed in a flow cytometer (FACSCalibur; BD Biosciences, Franklin Lakes, NJ) and the fraction of cells in each phase of cell cycle was determined using the cell cycle analysis platform contained within the FlowJo software (Tree Star, Ashland, OR).

I9.2 cells = test: Cell cycle analysis; assay type: cell-based, human; settings: I9.2, 1 µM
Protocol: as §2

LNCaP cells = test: Cell cycle analysis; assay type: cell-based, human; settings: various concentrations
Protocol: as §2

BT474 cells = test: Cell cycle analysis; assay type: cell-based, human; settings: BT474, evident at 1 µM
Protocol: as §2

CLK3(h) = molecular target: T6, CLK3(h) (Homo sapiens, UniProt P49761); test: Kinase panel; assay type: biochemical
T6 construct: purchased Millipore KinaseProfiler

[2] = Compound concentration in blood and tumor (HPLC/MS/MS); assay type: in vivo, mouse
Protocol: Concentration of the test compounds in the tissue and blood was analyzed using protein precipitation with acetonitrile, followed by HPLC/MS/MS analysis using positive ion atmospheric pressure chemical ionization or Turbo ionspray ionization (API 4000 or API 5000, Applied Biosystems).
The pharmacodynamic studies were carried out in SCID mice bearing BT474 tumor xenografts. […] Concentration of the test compounds was analysed by HPLC/MS/MS analysis.

Hck(h) = molecular target: T7, Hck(h) (Homo sapiens, UniProt P08631); test: Kinase panel; assay type: biochemical
T7 construct: purchased Millipore KinaseProfiler

PKCβ2 = PKCβ2 (Homo sapiens, UniProt P05771); test: Kinase IC50 assay; assay type: biochemical
PKCβ1 = PKCβ1 (Homo sapiens, UniProt P05771); test: Kinase IC50 assay; assay type: biochemical
PKCβ1, sequence (P05771 whole entry): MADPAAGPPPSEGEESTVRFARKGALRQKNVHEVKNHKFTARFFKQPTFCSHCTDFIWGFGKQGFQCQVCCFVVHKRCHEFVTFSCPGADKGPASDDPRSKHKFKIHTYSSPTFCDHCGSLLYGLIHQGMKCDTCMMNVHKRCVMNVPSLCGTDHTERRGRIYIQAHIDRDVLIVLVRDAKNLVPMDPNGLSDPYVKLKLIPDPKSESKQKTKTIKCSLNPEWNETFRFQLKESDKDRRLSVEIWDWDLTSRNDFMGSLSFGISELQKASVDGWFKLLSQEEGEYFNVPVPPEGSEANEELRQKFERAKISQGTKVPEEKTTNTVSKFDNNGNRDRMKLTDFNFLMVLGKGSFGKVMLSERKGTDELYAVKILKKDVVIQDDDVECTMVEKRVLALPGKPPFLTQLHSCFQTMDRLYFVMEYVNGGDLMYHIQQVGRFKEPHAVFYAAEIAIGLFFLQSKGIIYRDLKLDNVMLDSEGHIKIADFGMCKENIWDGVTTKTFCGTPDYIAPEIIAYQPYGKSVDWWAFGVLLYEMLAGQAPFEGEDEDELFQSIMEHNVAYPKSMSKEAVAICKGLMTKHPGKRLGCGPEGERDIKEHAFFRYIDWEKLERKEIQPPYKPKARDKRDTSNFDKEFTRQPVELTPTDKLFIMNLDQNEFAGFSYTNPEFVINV

T7 sequence (P08631 whole entry): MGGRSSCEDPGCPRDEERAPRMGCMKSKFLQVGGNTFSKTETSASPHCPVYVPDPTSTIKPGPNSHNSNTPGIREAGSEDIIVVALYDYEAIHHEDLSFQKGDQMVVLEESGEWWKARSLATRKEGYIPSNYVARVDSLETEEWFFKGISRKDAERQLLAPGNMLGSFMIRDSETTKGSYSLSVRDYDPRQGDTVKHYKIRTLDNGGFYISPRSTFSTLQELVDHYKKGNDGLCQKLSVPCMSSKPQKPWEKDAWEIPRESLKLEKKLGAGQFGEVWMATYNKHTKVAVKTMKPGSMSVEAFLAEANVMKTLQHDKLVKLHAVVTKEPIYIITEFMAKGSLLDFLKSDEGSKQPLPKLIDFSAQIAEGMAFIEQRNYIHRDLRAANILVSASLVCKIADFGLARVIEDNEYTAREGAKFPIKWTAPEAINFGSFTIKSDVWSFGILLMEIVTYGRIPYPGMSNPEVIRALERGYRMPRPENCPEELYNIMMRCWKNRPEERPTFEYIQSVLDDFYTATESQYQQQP
T3 sequence (P31751 whole entry): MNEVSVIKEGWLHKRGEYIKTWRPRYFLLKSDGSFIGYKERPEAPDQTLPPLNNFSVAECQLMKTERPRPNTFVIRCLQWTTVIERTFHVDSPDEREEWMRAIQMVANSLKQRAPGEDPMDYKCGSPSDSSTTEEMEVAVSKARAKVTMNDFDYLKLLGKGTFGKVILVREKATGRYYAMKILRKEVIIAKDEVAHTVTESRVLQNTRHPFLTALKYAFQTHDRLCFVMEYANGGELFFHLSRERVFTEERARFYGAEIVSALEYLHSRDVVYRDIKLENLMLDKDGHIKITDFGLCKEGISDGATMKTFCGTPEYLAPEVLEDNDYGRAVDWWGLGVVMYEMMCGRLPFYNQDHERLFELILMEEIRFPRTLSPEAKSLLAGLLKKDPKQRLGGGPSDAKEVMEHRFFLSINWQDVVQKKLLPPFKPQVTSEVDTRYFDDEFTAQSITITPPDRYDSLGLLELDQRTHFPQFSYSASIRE
T5 sequence (P49760 whole entry): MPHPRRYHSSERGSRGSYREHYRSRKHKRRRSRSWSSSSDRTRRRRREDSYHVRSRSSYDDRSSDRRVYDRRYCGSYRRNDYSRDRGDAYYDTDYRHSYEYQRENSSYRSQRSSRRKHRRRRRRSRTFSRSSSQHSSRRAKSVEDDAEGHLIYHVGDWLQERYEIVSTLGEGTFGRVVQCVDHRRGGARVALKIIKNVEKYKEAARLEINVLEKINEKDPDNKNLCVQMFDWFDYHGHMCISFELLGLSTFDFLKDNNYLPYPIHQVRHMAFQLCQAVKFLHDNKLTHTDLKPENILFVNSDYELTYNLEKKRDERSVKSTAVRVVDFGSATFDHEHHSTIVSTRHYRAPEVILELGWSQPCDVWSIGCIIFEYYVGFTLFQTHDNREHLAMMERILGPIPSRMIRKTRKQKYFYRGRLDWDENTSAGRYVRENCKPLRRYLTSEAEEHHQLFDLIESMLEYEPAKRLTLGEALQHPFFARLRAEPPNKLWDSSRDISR
T2 sequence (Q9Y243 whole entry): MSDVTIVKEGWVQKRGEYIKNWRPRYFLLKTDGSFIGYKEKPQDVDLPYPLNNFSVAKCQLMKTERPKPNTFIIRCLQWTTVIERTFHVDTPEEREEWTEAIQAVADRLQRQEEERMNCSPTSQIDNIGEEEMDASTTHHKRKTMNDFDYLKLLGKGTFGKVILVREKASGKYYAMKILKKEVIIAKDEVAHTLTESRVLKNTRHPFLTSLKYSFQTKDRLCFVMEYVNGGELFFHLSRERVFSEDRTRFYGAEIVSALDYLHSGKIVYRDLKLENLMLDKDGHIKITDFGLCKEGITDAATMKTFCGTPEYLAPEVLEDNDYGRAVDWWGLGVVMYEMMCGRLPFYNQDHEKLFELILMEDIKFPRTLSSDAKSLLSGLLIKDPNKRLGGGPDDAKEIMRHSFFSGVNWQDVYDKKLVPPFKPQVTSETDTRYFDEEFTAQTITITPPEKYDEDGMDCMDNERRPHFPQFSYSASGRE
T6 sequence (P49761 whole entry): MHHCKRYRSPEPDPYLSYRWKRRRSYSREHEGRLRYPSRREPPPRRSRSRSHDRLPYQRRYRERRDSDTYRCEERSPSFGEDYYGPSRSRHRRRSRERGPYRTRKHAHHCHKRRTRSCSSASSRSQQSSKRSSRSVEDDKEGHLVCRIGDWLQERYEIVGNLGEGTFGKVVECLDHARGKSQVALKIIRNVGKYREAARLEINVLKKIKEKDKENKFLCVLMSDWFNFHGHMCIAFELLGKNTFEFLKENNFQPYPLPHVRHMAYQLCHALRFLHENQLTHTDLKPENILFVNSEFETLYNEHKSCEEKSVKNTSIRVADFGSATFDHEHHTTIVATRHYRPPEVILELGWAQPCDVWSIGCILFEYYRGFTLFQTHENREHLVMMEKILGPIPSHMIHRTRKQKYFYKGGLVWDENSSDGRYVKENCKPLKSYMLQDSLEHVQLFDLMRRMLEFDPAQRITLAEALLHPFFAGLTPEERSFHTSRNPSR
T1 sequence (P31749 whole entry): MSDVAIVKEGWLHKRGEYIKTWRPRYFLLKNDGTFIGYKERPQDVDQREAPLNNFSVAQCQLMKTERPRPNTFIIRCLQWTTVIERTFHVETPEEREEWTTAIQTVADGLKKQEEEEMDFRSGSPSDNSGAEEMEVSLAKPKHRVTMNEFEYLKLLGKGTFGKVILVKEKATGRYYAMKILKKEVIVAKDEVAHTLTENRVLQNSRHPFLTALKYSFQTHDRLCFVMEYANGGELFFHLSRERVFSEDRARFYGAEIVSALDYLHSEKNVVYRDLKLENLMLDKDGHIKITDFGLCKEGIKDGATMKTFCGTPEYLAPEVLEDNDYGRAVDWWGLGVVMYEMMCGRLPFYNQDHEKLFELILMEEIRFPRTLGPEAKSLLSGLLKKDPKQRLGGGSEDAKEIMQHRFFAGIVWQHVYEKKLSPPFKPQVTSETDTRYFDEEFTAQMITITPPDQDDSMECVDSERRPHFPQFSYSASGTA
PKCβ2, sequence (P05771 1-673 isoform P05771-2): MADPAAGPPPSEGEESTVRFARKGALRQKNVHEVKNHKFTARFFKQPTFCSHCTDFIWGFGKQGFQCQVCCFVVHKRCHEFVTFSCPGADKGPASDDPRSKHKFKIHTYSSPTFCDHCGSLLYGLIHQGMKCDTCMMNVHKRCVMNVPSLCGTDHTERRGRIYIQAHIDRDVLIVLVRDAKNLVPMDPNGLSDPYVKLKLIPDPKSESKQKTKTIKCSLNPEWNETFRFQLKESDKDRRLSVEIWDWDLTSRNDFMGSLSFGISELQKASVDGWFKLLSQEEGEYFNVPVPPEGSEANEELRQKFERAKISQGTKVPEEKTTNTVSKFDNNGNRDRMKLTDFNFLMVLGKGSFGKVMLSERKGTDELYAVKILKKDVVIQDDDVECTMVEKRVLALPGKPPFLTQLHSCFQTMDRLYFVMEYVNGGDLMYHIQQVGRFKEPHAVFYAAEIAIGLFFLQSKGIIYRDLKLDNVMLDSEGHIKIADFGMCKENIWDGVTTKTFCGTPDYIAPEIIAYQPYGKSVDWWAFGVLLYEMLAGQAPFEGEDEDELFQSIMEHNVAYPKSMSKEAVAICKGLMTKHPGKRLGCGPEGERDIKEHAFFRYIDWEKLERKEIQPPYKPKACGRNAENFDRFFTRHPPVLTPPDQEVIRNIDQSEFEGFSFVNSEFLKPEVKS

With `Cn1ncc(Cl)c1-c1cc(C(=O)N[C@H](CN)Cc2ccc(F)c(F)c2)oc1Cl` [GSK2141795] the inhibition at 0.5 µM (PKBα(h); 0.5 µM) was 99%, the inhibition at 10 µM (PKBα(h); 10 µM) was 99% and the “IC50 (nM) / EC50, FOXO_GFP translocation” value [1] was 47 nM and 47 ± 37 nM. The “clinical activity, single agent” value (cancer patients) was “partial response and stable disease”, the inhibition at 0.5 µM (PKBγ(h); 0.5 µM) was 98% and the inhibition at 10 µM (PKBγ(h); 10 µM) was 98%. The TGI (HPAC tumor xenografts) was 31%, the TGI (CAPAN-2 tumor xenografts) was 26% and the inhibition at 0.5 µM (PKBβ(h); 0.5 µM) was 95%. For the same compound, the inhibition at 10 µM (PKBβ(h); 10 µM) was 99%, the inhibition at 0.5 µM (ULK3(h); 0.5 µM, read-out: % Inhibition) was 0% and the inhibition at 10 µM (ULK3(h); 10 µM, read-out: % Inhibition) was 49%. For the same compound, the inhibition at 0.5 µM (CLK2(h); 0.5 µM) was 58%, the inhibition at 10 µM (CLK2(h); 10 µM) was 94% and the “effect on cell cycle” value (A3 cells) was “dose dependant increase in G1 cellular arrest”. The “effect on cell cycle” value (I9.2 cells) was “dose dependant increase in G1 cellular arrest”, the “effect on cell cycle” value (LNCaP cells) was “concentration-dependent increase in cells within the sub-G1 phase” and the “effect on cell cycle” value (BT474 cells) was “G1 arrest”. For the same compound, the inhibition at 0.5 µM (CLK3(h); 0.5 µM) was 2%, the inhibition at 10 µM (CLK3(h); 10 µM) was 59% and the blood concentrations ([2]; 30 mg/kg QDx7, time course, maintained for 8 h) was 2 to 3 µM. The concentration at 2 h ([2]; SCID, mouse, whole blood, 30 mg/kg QDx7 oral, 2 h post last dose) was about 3 µM, the inhibition at 0.5 µM (Hck(h); 0.5 µM, read-out: % Inhibition) was -5% and the inhibition at 10 µM (Hck(h); 10 µM, read-out: % Inhibition) was 27%.

Compound `Cn1ncc(Cl)c1-c1cc(C(=O)N[C@H](CN)Cc2cccc(F)c2)sc1Cl` [GSK2110183] has an IC50 (PKCβ2) of over 1000 nM, an inhibition at 0.5 µM (ULK3(h)) of 20% and an inhibition at 10 µM (ULK3(h)) of 72%. It also gave an IC50 (PKCβ1) of 430 nM, an inhibition at 0.5 µM (Hck(h)) of -21% and an inhibition at 10 µM (Hck(h)) of -8%.
